The values that follow are results of earlier work, collected in patent US20070041998A1, “Use of alum and a th1 immune response inducing adjuvant for enhancing immune responses” (Intercell AG, priority 2003, published 2007).

Where no end group is shown, it is not given here.

For one data set, the system named is Staphylococcus aureus. The settings on record: Staphylococcus aureus-infected mice.
The test system of the next data set is human neutrophils. The settings on record: via cell surface calreticulin.

Turning to “KLKLLLLLKLK-NH2 [synthetic antimicrobial peptide (Nakajima 1997; Cho 1999)]”, the chemotherapeutic activity result in the data set on Staphylococcus aureus is given as “significant chemotherapeutic activity”. Further, the “production of superoxide anion (O2−)” value in the data set with human neutrophils is reported as “activated to produce the superoxide anion”.
